Relative viability data for eight cell lines are collected here from the supplement of paper PMC10307832.

Compound in the assay “BI-D1870 + Navitoclax”: CC(C)CCN1c2nc(Nc3cc(F)c(O)c(F)c3)ncc2N(C)C(=O)C1C [BI-D1870] + CC1(C)CCC(c2ccc(Cl)cc2)=C(CN2CCN(c3ccc(C(=O)NS(=O)(=O)c4ccc(N[C@H](CCN5CCOCC5)CSc5ccccc5)c(S(=O)(=O)C(F)(F)F)c4)cc3)CC2)C1 [Navitoclax] (partner 0.5 µM)
Nature of the assay: relative viability (nuclei count vs DMSO), 5 days (fraction); higher = more cells survive. The method in brief:
(§1)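 A single step with final 0.05% Triton X-100, 1% formaldehyde and 1 ug/ml Hoechst fixed the cells and stained nuclei 5 days after treatment. Lung cancer cell lines in 1536-well plates had been treated by pin tool the day after seeding with one drug alone or a fixed anchor-drug dose plus five library-drug doses (not always all listed) in √10 steps, and nuclei were counted on 4× images. Relative viability is the ratio of nuclei in treated wells to nuclei in vehicle wells, taken as the median of duplicate plates.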

Compound in the assay “Zebularine + Foretinib”: O=c1ncccn1[C@@H]1O[C@H](CO)[C@@H](O)[C@H]1O [Zebularine] + COc1cc2c(Oc3ccc(NC(=O)C4(C(=O)Nc5ccc(F)cc5)CC4)cc3F)ccnc2cc1OCCCN1CCOCC1 [Foretinib] (partner 0.25 µM)
Described as above. The method in brief:
as §1

With NCI-H2405, the relative viability with BI-D1870 + Navitoclax (first compound 0.04 µM) is 1.17; with BI-D1870 + Navitoclax (first compound 0.1265 µM) it was 0.774; with BI-D1870 + Navitoclax (first compound 0.4 µM) it was 0.977; with BI-D1870 + Navitoclax (first compound 1.265 µM), 0.844; with BI-D1870 + Navitoclax (first compound 4 µM) it was 0.671; in the assay with Zebularine + Foretinib (first compound 1 µM), 1.04. In addition, the relative viability in the assay with Zebularine + Foretinib (first compound 3.162 µM) is 1.05; with Zebularine + Foretinib (first compound 10 µM), 1.07; with Zebularine + Foretinib (first compound 31.62 µM), 0.986; in the assay with Zebularine + Foretinib (first compound 100 µM), 0.664.

Regarding NCI-H322M, the relative viability with BI-D1870 + Navitoclax (first compound 0.04 µM) is 1.22; with BI-D1870 + Navitoclax (first compound 0.1265 µM), 1.19; in the assay with BI-D1870 + Navitoclax (first compound 0.4 µM), 1.44; in the assay with BI-D1870 + Navitoclax (first compound 1.265 µM), 1.06; with BI-D1870 + Navitoclax (first compound 4 µM) it was 1.07; with Zebularine + Foretinib (first compound 1 µM), 0.914. Also, the relative viability with Zebularine + Foretinib (first compound 3.162 µM) came out at 0.945; in the assay with Zebularine + Foretinib (first compound 10 µM), 0.645; in the assay with Zebularine + Foretinib (first compound 31.62 µM), 0.773; in the assay with Zebularine + Foretinib (first compound 100 µM) it was 0.647.

Turning to NCI-H2170, the relative viability with BI-D1870 + Navitoclax (first compound 0.04 µM) is 0.608; in the assay with BI-D1870 + Navitoclax (first compound 0.1265 µM) it was 0.524; with BI-D1870 + Navitoclax (first compound 0.4 µM), 0.578; with BI-D1870 + Navitoclax (first compound 1.265 µM), 0.514; with BI-D1870 + Navitoclax (first compound 4 µM), 0.496; with Zebularine + Foretinib (first compound 1 µM), 0.983. For the same cell line, the relative viability in the assay with Zebularine + Foretinib (first compound 3.162 µM) turned out to be 1.02; in the assay with Zebularine + Foretinib (first compound 10 µM), 0.909; with Zebularine + Foretinib (first compound 31.62 µM), 0.98; with Zebularine + Foretinib (first compound 100 µM) it was 0.611.

NCI-H1395: the relative viability in the assay with BI-D1870 + Navitoclax (first compound 0.04 µM) was found to be 1.16; in the assay with BI-D1870 + Navitoclax (first compound 0.1265 µM), 1.12; with BI-D1870 + Navitoclax (first compound 0.4 µM), 1.36; with BI-D1870 + Navitoclax (first compound 1.265 µM) it was 1.01; with BI-D1870 + Navitoclax (first compound 4 µM) it was 0.871; with Zebularine + Foretinib (first compound 1 µM) it was 0.852. Moreover, the relative viability in the assay with Zebularine + Foretinib (first compound 3.162 µM) came to 0.961; with Zebularine + Foretinib (first compound 10 µM), 0.772; with Zebularine + Foretinib (first compound 31.62 µM), 0.608; with Zebularine + Foretinib (first compound 100 µM), 0.445.

In the case of IA-LM, the relative viability with BI-D1870 + Navitoclax (first compound 0.04 µM) was 0.818; with BI-D1870 + Navitoclax (first compound 0.1265 µM), 0.926; with BI-D1870 + Navitoclax (first compound 0.4 µM), 0.764; with BI-D1870 + Navitoclax (first compound 1.265 µM), 0.577; in the assay with BI-D1870 + Navitoclax (first compound 4 µM) it was 0.19; with Zebularine + Foretinib (first compound 1 µM) it was 1.1. The relative viability with Zebularine + Foretinib (first compound 3.162 µM) amounted to 1.14; with Zebularine + Foretinib (first compound 31.62 µM), 1.34; with Zebularine + Foretinib (first compound 100 µM) it was 0.877.

Consider NCI-H838, for which the relative viability came to 1.28 with BI-D1870 + Navitoclax (first compound 0.04 µM); 1.04 with BI-D1870 + Navitoclax (first compound 0.1265 µM); 1.12 with BI-D1870 + Navitoclax (first compound 0.4 µM); 1.29 with BI-D1870 + Navitoclax (first compound 1.265 µM); 1.21 in the assay with BI-D1870 + Navitoclax (first compound 4 µM); 1.08 in the assay with Zebularine + Foretinib (first compound 1 µM). The relative viability in the assay with Zebularine + Foretinib (first compound 3.162 µM) is 1.03; with Zebularine + Foretinib (first compound 10 µM), 0.705; with Zebularine + Foretinib (first compound 31.62 µM) it was 0.698; in the assay with Zebularine + Foretinib (first compound 100 µM) it was 0.322.

As to CAL-12T, the relative viability in the assay with BI-D1870 + Navitoclax (first compound 0.04 µM) was determined as 1.35; with BI-D1870 + Navitoclax (first compound 0.1265 µM), 1.03; with BI-D1870 + Navitoclax (first compound 0.4 µM) it was 1.19; with BI-D1870 + Navitoclax (first compound 1.265 µM) it was 1.07; with BI-D1870 + Navitoclax (first compound 4 µM), 1.08; in the assay with Zebularine + Foretinib (first compound 1 µM), 1.2. The relative viability is 1.09 in the assay with Zebularine + Foretinib (first compound 3.162 µM), 0.931 in the assay with Zebularine + Foretinib (first compound 10 µM), 1.15 in the assay with Zebularine + Foretinib (first compound 31.62 µM) and 0.671 with Zebularine + Foretinib (first compound 100 µM).

EBC-1: the relative viability amounted to 0.433 with BI-D1870 + Navitoclax (first compound 0.04 µM); 0.424 with BI-D1870 + Navitoclax (first compound 0.1265 µM); 0.367 with BI-D1870 + Navitoclax (first compound 0.4 µM); 0.194 with BI-D1870 + Navitoclax (first compound 1.265 µM); 0.134 in the assay with BI-D1870 + Navitoclax (first compound 4 µM); 0.102 with Zebularine + Foretinib (first compound 1 µM). The relative viability with Zebularine + Foretinib (first compound 3.162 µM) stood at 0.105; with Zebularine + Foretinib (first compound 10 µM) it was 0.0888; in the assay with Zebularine + Foretinib (first compound 31.62 µM) it was 0.0884; with Zebularine + Foretinib (first compound 100 µM), 0.109.
